Measurements published in PubChem BioAssay (NCI).
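Dose response: 5 concentrations. Exposure: 48 h. Format: 96-well plates. Endpoint: linear interpolation; highest concentration if not reached. The concentration for 50% growth inhibition is given as GI50. Definition used: TGI = concentration required for complete inhibition of growth.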

Legend:
Assay in all cases: NCI-60 cell line screen, 48 h; in the data active = GI50 below about 0.43 µM; inactive = the rest
786-0 renal = system: 786-0 renal
A498 renal = system: A498 renal
A549 NSCLC = system: A549 NSCLC
ACHN renal = system: ACHN renal
BT-549 breast = system: BT-549 breast
CAKI-1 renal = system: CAKI-1 renal
COLO 205 colon = system: COLO 205 colon
DU-145 prostate = system: DU-145 prostate
EKVX NSCLC = system: EKVX NSCLC
HCC-2998 colon = system: HCC-2998 colon
HCT-15 colon = system: HCT-15 colon
HOP-62 NSCLC = system: HOP-62 NSCLC
HOP-92 NSCLC = system: HOP-92 NSCLC
HS 578T breast = system: HS 578T breast
HT29 colon = system: HT29 colon
IGROV1 ovarian = system: IGROV1 ovarian
KM12 colon = system: KM12 colon
LOX IMVI melanoma = system: LOX IMVI melanoma
MALME-3M melanoma = system: MALME-3M melanoma
MCF7 breast = system: MCF7 breast
MDA-MB-231 breast = system: MDA-MB-231 breast
MDA-MB-435 = system: MDA-MB-435
MOLT-4 leukemia = system: MOLT-4 leukemia
NCI-H226 lung = system: NCI-H226 lung
NCI-H23 lung = system: NCI-H23 lung
NCI-H460 lung = system: NCI-H460 lung
NCI-H522 lung = system: NCI-H522 lung
NCI/ADR-RES ovarian = system: NCI/ADR-RES ovarian
OVCAR-3 ovarian = system: OVCAR-3 ovarian
OVCAR-4 ovarian = system: OVCAR-4 ovarian
OVCAR-5 ovarian = system: OVCAR-5 ovarian
OVCAR-8 ovarian = system: OVCAR-8 ovarian
PC-3 prostate = system: PC-3 prostate
RPMI-8226 leukemia = system: RPMI-8226 leukemia
RXF 393 renal = system: RXF 393 renal
SF-268 CNS = system: SF-268 CNS
SF-295 CNS = system: SF-295 CNS
SF-539 CNS = system: SF-539 CNS
SK-MEL-2 melanoma = system: SK-MEL-2 melanoma
SK-MEL-28 melanoma = system: SK-MEL-28 melanoma
SK-MEL-5 melanoma = system: SK-MEL-5 melanoma
SK-OV-3 ovarian = system: SK-OV-3 ovarian
SN12C renal = system: SN12C renal
SNB-19 CNS = system: SNB-19 CNS
SNB-75 CNS = system: SNB-75 CNS
SR leukemia = system: SR leukemia
SW-620 colon = system: SW-620 colon
T-47D breast = system: T-47D breast
TK-10 renal = system: TK-10 renal
U251 CNS = system: U251 CNS
UACC-257 melanoma = system: UACC-257 melanoma
UACC-62 melanoma = system: UACC-62 melanoma
UO-31 renal = system: UO-31 renal
CCRF-CEM leukemia = system: CCRF-CEM leukemia
HCT-116 colon = system: HCT-116 colon
HL-60(TB) leukemia = system: HL-60(TB) leukemia
K-562 leukemia = system: K-562 leukemia
M14 melanoma = system: M14 melanoma

Cc1ccc(C(=O)Nc2ccc(CNCCN3CCNCC3)c(C(F)(F)F)c2)cc1C#Cc1cnc2cccnn12
5.9 µM: TGI (UO-31 renal)
3.95 µM: TGI (SK-OV-3 ovarian)
4.91 µM: TGI (RPMI-8226 leukemia)
2.78 µM: TGI (HT29 colon)
4.01 µM: TGI (OVCAR-8 ovarian)
4.47 µM: TGI (MOLT-4 leukemia)
4.11 µM: TGI (SF-268 CNS)
3.43 µM: TGI (HCT-15 colon)
3.65 µM: TGI (SW-620 colon)
3.87 µM: TGI (COLO 205 colon)
3.36 µM: TGI (A498 renal)
4.26 µM: TGI (OVCAR-4 ovarian)
3.48 µM: TGI (NCI-H522 lung)
3.62 µM: TGI (HCC-2998 colon)
3.74 µM: TGI (NCI-H226 lung)
3.31 µM: TGI (OVCAR-5 ovarian) | TGI (SF-295 CNS)
inactive: GI50 (786-0 renal) 2.17 µM | GI50 (A498 renal) 1.8 µM | GI50 (A549 NSCLC) 1.92 µM | GI50 (ACHN renal) 1.82 µM | GI50 (BT-549 breast) 2.17 µM | GI50 (CAKI-1 renal) 1.79 µM | GI50 (COLO 205 colon) 1.93 µM | GI50 (DU-145 prostate) 1.89 µM | GI50 (EKVX NSCLC) 2.12 µM | GI50 (HCC-2998 colon) 1.97 µM | GI50 (HCT-15 colon) 1.87 µM | GI50 (HOP-62 NSCLC) 1.86 µM | GI50 (HOP-92 NSCLC) 1.45 µM | GI50 (HS 578T breast) 2.07 µM | GI50 (HT29 colon) 1.39 µM | GI50 (IGROV1 ovarian) 1.85 µM | GI50 (KM12 colon) 1.78 µM | GI50 (LOX IMVI melanoma) 1.73 µM | GI50 (MALME-3M melanoma) 1.71 µM | GI50 (MCF7 breast) 1.78 µM | GI50 (MDA-MB-231 breast) 1.41 µM | GI50 (MDA-MB-435) 1.77 µM | GI50 (MOLT-4 leukemia) 1.68 µM | GI50 (NCI-H226 lung) 1.84 µM | GI50 (NCI-H23 lung) 1.85 µM | GI50 (NCI-H460 lung) 1.99 µM | GI50 (NCI-H522 lung) 1.78 µM | GI50 (NCI/ADR-RES ovarian) 7.54 µM | GI50 (OVCAR-3 ovarian) 1.97 µM | GI50 (OVCAR-4 ovarian) 2.04 µM | GI50 (OVCAR-5 ovarian) 1.79 µM | GI50 (OVCAR-8 ovarian) 2.07 µM | GI50 (PC-3 prostate) 1.86 µM | GI50 (RPMI-8226 leukemia) 2.18 µM | GI50 (RXF 393 renal) 1.8 µM | GI50 (SF-268 CNS) 2.14 µM | GI50 (SF-295 CNS) 1.78 µM | GI50 (SF-539 CNS) 1.63 µM | GI50 (SK-MEL-2 melanoma) 1.81 µM | GI50 (SK-MEL-28 melanoma) 1.73 µM | GI50 (SK-MEL-5 melanoma) 1.76 µM | GI50 (SK-OV-3 ovarian) 2.13 µM | GI50 (SN12C renal) 1.77 µM | GI50 (SNB-19 CNS) 1.96 µM | GI50 (SNB-75 CNS) 0.714 µM | GI50 (SR leukemia) 2.47 µM | GI50 (SW-620 colon) 1.94 µM | GI50 (T-47D breast) 1.94 µM | GI50 (TK-10 renal) 1.97 µM | GI50 (U251 CNS) 1.72 µM | GI50 (UACC-257 melanoma) 1.93 µM | GI50 (UACC-62 melanoma) 1.74 µM | GI50 (UO-31 renal) 2.46 µM
3.21 µM: TGI (U251 CNS)
3.63 µM: TGI (HOP-62 NSCLC)
26.7 µM: TGI (NCI/ADR-RES ovarian)
3.85 µM: TGI (UACC-257 melanoma)
3.18 µM: TGI (LOX IMVI melanoma)
3.68 µM: TGI (SK-MEL-2 melanoma)
3.58 µM: TGI (TK-10 renal)
3.06 µM: TGI (SF-539 CNS)
3.89 µM: TGI (786-0 renal)
3.38 µM: TGI (SN12C renal)
3.73 µM: TGI (A549 NSCLC)
3.25 µM: TGI (HOP-92 NSCLC) | TGI (SK-MEL-5 melanoma)
3.53 µM: TGI (SNB-75 CNS)
5.25 µM: TGI (HS 578T breast)
3.49 µM: TGI (IGROV1 ovarian)
3.45 µM: TGI (NCI-H23 lung)
3.39 µM: TGI (DU-145 prostate) | TGI (MALME-3M melanoma)
3.81 µM: TGI (NCI-H460 lung)
3.54 µM: TGI (SNB-19 CNS)
3.35 µM: TGI (KM12 colon)
> 100 µM: TGI (SR leukemia)
2.97 µM: TGI (MDA-MB-231 breast)
3.4 µM: TGI (MCF7 breast) | TGI (PC-3 prostate)
3.37 µM: TGI (CAKI-1 renal)
4.13 µM: TGI (EKVX NSCLC)
3.3 µM: TGI (MDA-MB-435)
3.61 µM: TGI (OVCAR-3 ovarian)
4.09 µM: TGI (T-47D breast)
3.91 µM: TGI (BT-549 breast)
3.27 µM: TGI (ACHN renal) | TGI (UACC-62 melanoma)
3.19 µM: TGI (SK-MEL-28 melanoma)
3.24 µM: TGI (RXF 393 renal)

COc1cc(-c2ccc3ncnc(NCc4ccccc4)c3c2)cnc1OC
> 100 µM: TGI (786-0 renal) | TGI (A549 NSCLC) | TGI (ACHN renal) | TGI (BT-549 breast) | TGI (CAKI-1 renal) | TGI (CCRF-CEM leukemia) | TGI (COLO 205 colon) | TGI (DU-145 prostate) | TGI (EKVX NSCLC) | TGI (HCC-2998 colon) | TGI (HCT-116 colon) | TGI (HCT-15 colon) | TGI (HL-60(TB) leukemia) | TGI (HOP-62 NSCLC) | TGI (HT29 colon) | TGI (K-562 leukemia) | TGI (KM12 colon) | TGI (M14 melanoma) | TGI (MALME-3M melanoma) | TGI (MDA-MB-231 breast) | TGI (MDA-MB-435) | TGI (MOLT-4 leukemia) | TGI (NCI-H226 lung) | TGI (NCI-H460 lung) | TGI (NCI-H522 lung) | TGI (NCI/ADR-RES ovarian) | TGI (OVCAR-3 ovarian) | TGI (OVCAR-4 ovarian) | TGI (OVCAR-5 ovarian) | TGI (OVCAR-8 ovarian) | TGI (PC-3 prostate) | TGI (RPMI-8226 leukemia) | TGI (SF-268 CNS) | TGI (SF-295 CNS) | TGI (SF-539 CNS) | TGI (SK-MEL-2 melanoma) | TGI (SK-MEL-28 melanoma) | TGI (SK-MEL-5 melanoma) | TGI (SN12C renal) | TGI (SNB-19 CNS) | TGI (SR leukemia) | TGI (SW-620 colon) | TGI (U251 CNS) | TGI (UACC-257 melanoma) | TGI (UACC-62 melanoma) | TGI (UO-31 renal)
4.82 µM: TGI (HOP-92 NSCLC)
19 µM: TGI (MCF7 breast)
3.52 µM: TGI (IGROV1 ovarian)
6.64 µM: TGI (A498 renal)
active: GI50 (T-47D breast) 0.192 µM
inactive: GI50 (786-0 renal) 2.99 µM | GI50 (A498 renal) 1.78 µM | GI50 (A549 NSCLC) 3.59 µM | GI50 (ACHN renal) 2.92 µM | GI50 (BT-549 breast) 3.25 µM | GI50 (CAKI-1 renal) 2.02 µM | GI50 (CCRF-CEM leukemia) 4 µM | GI50 (COLO 205 colon) 7.48 µM | GI50 (DU-145 prostate) 3.43 µM | GI50 (EKVX NSCLC) 1.89 µM | GI50 (HCC-2998 colon) 14.4 µM | GI50 (HCT-116 colon) 13.1 µM | GI50 (HCT-15 colon) 5.68 µM | GI50 (HL-60(TB) leukemia) 6.42 µM | GI50 (HOP-62 NSCLC) 6.88 µM | GI50 (HOP-92 NSCLC) 0.544 µM | GI50 (HT29 colon) 5.02 µM | GI50 (IGROV1 ovarian) 1.03 µM | GI50 (K-562 leukemia) 51 µM | GI50 (KM12 colon) 50.7 µM | GI50 (LOX IMVI melanoma) 4.19 µM | GI50 (M14 melanoma) 16.4 µM | GI50 (MALME-3M melanoma) 9.59 µM | GI50 (MCF7 breast) 0.658 µM | GI50 (MDA-MB-231 breast) 4.72 µM | GI50 (MDA-MB-435) 56 µM | GI50 (MOLT-4 leukemia) 3.8 µM | GI50 (NCI-H226 lung) 4.68 µM | GI50 (NCI-H460 lung) 5.83 µM | GI50 (NCI-H522 lung) 4.65 µM | GI50 (NCI/ADR-RES ovarian) 7.97 µM | GI50 (OVCAR-3 ovarian) 3.94 µM | GI50 (OVCAR-4 ovarian) 62.7 µM | GI50 (OVCAR-5 ovarian) 2.97 µM | GI50 (OVCAR-8 ovarian) 9.42 µM | GI50 (PC-3 prostate) 2.79 µM | GI50 (RPMI-8226 leukemia) 4.38 µM | GI50 (RXF 393 renal) 1.33 µM | GI50 (SF-268 CNS) 6.43 µM | GI50 (SF-295 CNS) 3.83 µM | GI50 (SF-539 CNS) 4.8 µM | GI50 (SK-MEL-2 melanoma) 19.5 µM | GI50 (SK-MEL-28 melanoma) 9.68 µM | GI50 (SK-MEL-5 melanoma) 10.7 µM | GI50 (SN12C renal) 3.74 µM | GI50 (SNB-19 CNS) 9.33 µM | GI50 (SNB-75 CNS) 0.655 µM | GI50 (SR leukemia) 7.24 µM | GI50 (SW-620 colon) 34.2 µM | GI50 (U251 CNS) 77.3 µM | GI50 (UACC-257 melanoma) 69.8 µM | GI50 (UACC-62 melanoma) 2.97 µM | GI50 (UO-31 renal) 1.45 µM
2.82 µM: TGI (T-47D breast)
27.4 µM: TGI (LOX IMVI melanoma)
6.87 µM: TGI (SNB-75 CNS)
6.1 µM: TGI (RXF 393 renal)
